Earlier results as cited in US20260158011A1 (Achieve Life Sciences, Inc., priority 2023, published 2026).
Read-outs that look alike come from different tables or passages of the source.

Experiments:
smokers [1] = details: cited from earlier work
smokers [2] = details: Cochrane, Chantix (n > 7000); cited from earlier work
[3] = target: neuronal alpha4, beta2 (α4β2) receptors (Homo sapiens, UniProt P17787+P43681); details: background studies; cited from earlier work
neuronal alpha4, beta2 (α4β2) receptors, sequence (P43681 29-627 limits assumed): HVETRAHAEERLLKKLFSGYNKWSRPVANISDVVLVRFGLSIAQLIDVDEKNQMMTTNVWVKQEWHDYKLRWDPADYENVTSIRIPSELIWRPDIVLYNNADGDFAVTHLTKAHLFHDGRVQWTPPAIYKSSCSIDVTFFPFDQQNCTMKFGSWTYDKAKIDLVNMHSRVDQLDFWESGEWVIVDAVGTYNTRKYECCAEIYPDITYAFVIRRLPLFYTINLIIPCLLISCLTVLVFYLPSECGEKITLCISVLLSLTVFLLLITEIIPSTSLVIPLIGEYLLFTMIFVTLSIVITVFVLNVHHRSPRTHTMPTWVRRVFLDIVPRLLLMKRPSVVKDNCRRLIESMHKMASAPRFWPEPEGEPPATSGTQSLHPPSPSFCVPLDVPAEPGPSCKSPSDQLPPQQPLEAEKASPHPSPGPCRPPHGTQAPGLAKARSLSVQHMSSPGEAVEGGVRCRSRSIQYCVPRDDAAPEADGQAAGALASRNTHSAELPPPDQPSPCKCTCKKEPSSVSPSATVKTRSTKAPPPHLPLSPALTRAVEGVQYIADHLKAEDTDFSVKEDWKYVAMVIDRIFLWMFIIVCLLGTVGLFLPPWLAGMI
neuronal alpha4, beta2 (α4β2) receptors, sequence (P17787 26-502): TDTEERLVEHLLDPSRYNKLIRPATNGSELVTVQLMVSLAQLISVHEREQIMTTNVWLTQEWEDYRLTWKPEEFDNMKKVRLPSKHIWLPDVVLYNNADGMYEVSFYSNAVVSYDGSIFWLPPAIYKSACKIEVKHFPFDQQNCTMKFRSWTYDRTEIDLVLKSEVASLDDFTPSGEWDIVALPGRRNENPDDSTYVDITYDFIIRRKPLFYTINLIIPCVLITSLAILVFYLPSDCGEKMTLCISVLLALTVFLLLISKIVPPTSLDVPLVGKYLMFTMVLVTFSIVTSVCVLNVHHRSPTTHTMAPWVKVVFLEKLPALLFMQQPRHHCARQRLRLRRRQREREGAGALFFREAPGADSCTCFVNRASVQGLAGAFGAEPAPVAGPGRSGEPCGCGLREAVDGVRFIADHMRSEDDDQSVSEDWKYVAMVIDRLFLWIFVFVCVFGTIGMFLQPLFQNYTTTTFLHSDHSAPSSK

c1cnc2cc3c(cc2n1)[C@@H]1CNC[C@H]3C1 [Chantix ®, varenicline]
OR at End of Treatment (smokers [1]; Chantix 12 weeks (EAGLES), versus placebo): 4.0
Drug-placebo difference in quit rate at End of Treatment (smokers [1]; Chantix 12 weeks (EAGLES)): 24.3%
Quit Rate at End of Treatment (smokers [1]; Chantix 12 weeks (EAGLES)): 38.0%
OR at 4 Weeks Off Treatment (smokers [1]; Chantix (EAGLES), versus placebo): 3.5
Drug-placebo difference in quit rate at 4 Weeks Off Treatment (smokers [1]; Chantix (EAGLES)): 20.7%
Quit Rate at 4 Weeks Off Treatment (smokers [1]; Chantix (EAGLES)): 33.2%
OR at 4 Weeks Treatment (smokers [1]; Chantix (ONCKEN), versus placebo): 3.1
Drug-placebo difference in quit rate at 4 Weeks Treatment (smokers [1]; Chantix (ONCKEN)): 21.4%
Quit Rate at 4 Weeks Treatment (smokers [1]; Chantix (ONCKEN)): 37.7%
Quit rate at 24 weeks (smokers [1]; EAGLES, U.S. patients (N=1065)): 16%
Overall quit rate at 24 weeks (smokers [1]; EAGLES, all regions): 22%
CAR weeks 9-24 % (95% CI) (smokers [1]; EAGLES, region Non-U.S.): 27.9 (25.2-30.8) % (95% CI)
Versus placebo OR (95% CI), CAR weeks 9-24 (smokers [1]; EAGLES, region Non-U.S.): 2.80 (2.20-3.55)
CAR weeks 9-24 % (95% CI) (smokers [1]; EAGLES, region U.S.): 16.1 (14.0-18.4) % (95% CI)
Versus placebo OR (95% CI), CAR weeks 9-24 (smokers [1]; EAGLES, region U.S.): 2.66 (1.99-3.55)
Serious AEs (smokers [2]): 3.3%
TEAE: Abnormal dreams (smokers [2]): 12.5%
TEAE: Headache (smokers [2]): 12.7%
TEAE: Insomnia (smokers [2]): 14.2%
TEAE: Nausea (smokers [2]): 27.8%

CN1CCCC1c1cccnc1 (stereo not drawn) [nicotine, reference compound]
Binding to α4β2 receptors [3]: bind strongly and preferentially
